Test results published in paper PMC3726442 (PLoS ONE, 2013).
Each block holds one compound with its values, some of them ahead of it.

Test: Plasma concentrations of tamoxifen and its metabolites in breast cancer patients on tamoxifen, by HPLC-tandem mass spectrometry
[1] = all samples analyzed, n = 125, before daily 20 mg TAM dose

Description: One hundred and thirty five Caucasian patients of Spanish descent recently diagnosed with BC were recruited from the center Fundación Tejerina-Centro de Patología de la Mama (Madrid). Premenopausal and postmenopausal women were enrolled when started on TAM as standard adjuvant therapy after undergoing primary surgery, radiation and adjuvant chemotherapy. Patients were excluded if they had started TAM therapy simultaneously with either adjuvant chemotherapy or adjuvant radiation therapy (or both) or if they were undergoing other adjuvant endocrine therapies. Patients who were pregnant or breast-feeding were also excluded from the study. […] Blood samples were collected within 3 to 60 months of initiating TAM treatment.
Venous blood was collected from all 135 subjects before taking their daily 20- mg dose of TAM. Ten milliliters of heparin plasma were separated by centrifugation and immediately stored at −20°C until analysis. In addition, one milliliter of an EDTA blood sample was taken for subsequent DNA extraction and genotyping. DNA was isolated from peripheral leukocytes using a QIAamp DNA Blood Mini Kit® (Qiagen, Madrid, Spain) according to the manufacturer’s instructions. The DNA concentration was determined and adjusted to 2–20 ng/ µL.
TAM and its metabolites were separated and quantified by high-pressure liquid chromatography-tandem mass spectrometry using an Agilent HPLC 1200 system. HPLC experiments were performed using a binary pump G1312A, a G1316A column oven, G1379B degasser and an automatic injector H-ALS G1367B. Mobile phase A and phase B consisted of 0.1% formic acid in water and acetonitrile, respectively. Mobile phases A and B were pumped through a ZORBAX Eclipse XDB-C18 column (150 mm×2.1 mm I.D., 3.5 µm, Agilent USA) at a flow rate of 0.2 mL/min using the gradient shown in Table 1. Separation was conducted at 30°C. 15- µL aliquots were injected and the autosampler needle was rinsed in acetonitrile/water solution (1∶1). The total run time was 20 min. During the first 4.0 and last 2.0 min, the eluate was removed using a divert valve to avoid endogenous compounds entering the mass spectrometer.
As a detector, we used an A 6410 Triple Quadrupole mass spectrometer (Agilent Technologies, USA) equipped with a heated electrospray ionization source (Thermo Fisher Scientific, Waltham, MA, USA) operating in positive ion mode. For quantification, multiple reaction monitoring (MRM) chromatograms were acquired using Mass Hunter software version B.01.04 (Agilent Technologies, USA). Positive ions were created at atmospheric pressure. Quadrupoles operated at unit resolution (0.7 Da).
A 300- µL volume of 1% formic acid in acetonitrile containing internal standards was added to a 100- µL serum aliquot. After vortexing and centrifugation, the clear supernatant was transferred to a HybridSPE column (Supelco) and the eluents stored at 2–8°C until analysis. Samples were analyzed in triplicate.
Descriptive statistics were calculated using standard methods. Metabolic ratios were calculated as the concentration of substrate/concentration of metabolite. The non-normal distribution of data was confirmed by the Kolmogorov-Smirnov test. Levels of TAM, metabolites and ratios between genotype groups were compared using Wilcoxon-Mann-Whitney or Kruskal-Wallis tests. All statistical tests (two-sided) were performed using SPSS software (version 18.0 SPSS, Chicago, IL). Significance was set at a p<0.05.

- median plasma concentration [1]: 6.75 ng/mL
Compound: 4-hydroxy-tamoxifen [4-OH-tamoxifen]

- plasma concentration, mean ±SD (genotype CYP2D6 I/I, n = 1): 130.54 ± 0.00 ng/mL
- plasma concentration, median (genotype CYP2D6 I/I, n = 1): 130.54 ng/mL
- plasma concentration, range (genotype CYP2D6 I/I, n = 1): (130.54–130.54) ng/mL
- plasma concentration, range (genotype CYP2D6 I/P, n = 8): (88.08–289.96) ng/mL
- plasma concentration, mean ±SD (genotype CYP2D6 P/P, n = 2): 278.43 ± 132.13 ng/mL
- plasma concentration, median (genotype CYP2D6 P/P, n = 2): 278.43 ng/mL
- plasma concentration, range (genotype CYP2D6 P/P, n = 2): (185.00–371.83) ng/mL
- plasma concentration, mean ±SD (genotype CYP2D6 wt/I, n = 4): 208.48 ± 66.06 ng/mL
- plasma concentration, range (genotype CYP2D6 wt/I, n = 4): (151.94–302.03) ng/mL
- plasma concentration, mean ±SD (genotype CYP2D6 wt/P, n = 26): 209.57 ± 121.53 ng/mL
- plasma concentration, range (genotype CYP2D6 wt/P, n = 26): (89.79–576.23) ng/mL
- plasma concentration, mean ±SD (genotype CYP2D6 wt/wt, n = 78): 203.05 ± 80.53 ng/mL
- plasma concentration, range (genotype CYP2D6 wt/wt, n = 78): (77.10–573.83) ng/mL
- plasma concentration, range (genotype CYP2D6 wtxN/P, n = 2): (102.91–264.41) ng/mL
- plasma concentration, mean ±SD (genotype CYP3A4 wt/*1B, n = 3): 260.69 ± 136.19 ng/mL
- plasma concentration, median (genotype CYP3A4 wt/*1B, n = 3): 261.00 ng/mL
- plasma concentration, range (genotype CYP3A4 wt/*1B, n = 3): (124.35–396.73) ng/mL
- plasma concentration, mean ±SD (genotype CYP3A4 wt/*3, n = 2): 212.83 ± 68.55 ng/mL
- plasma concentration, median (genotype CYP3A4 wt/*3, n = 2): 212.83 ng/mL
- plasma concentration, range (genotype CYP3A4 wt/*3, n = 2): (164.35–261.30) ng/mL
- plasma concentration, mean ±SD (genotype CYP3A4 wt/*17, n = 9): 230.28 ± 153.17 ng/mL
- plasma concentration, range (genotype CYP3A4 wt/*17, n = 9): (88.08–573.83) ng/mL
- plasma concentration, mean ±SD (genotype CYP3A4 wt/wt, n = 107): 198.93 ± 89.59 ng/mL
- plasma concentration, range (genotype CYP3A4 wt/wt, n = 107): (77.10–576.23) ng/mL
- plasma concentration, mean ±SD (genotype CYP3A5 *3/*3, n = 117): 204.98 ± 96.33 ng/mL
- plasma concentration, range (genotype CYP3A5 *3/*3, n = 117): (77.10–576.23) ng/mL
- plasma concentration, mean ±SD (genotype CYP3A5 wt/*3, n = 6): 164.16 ± 51.72 ng/mL
- plasma concentration, median (genotype CYP3A5 wt/*3, n = 6): 160.17 ng/mL
- plasma concentration, range (genotype CYP3A5 wt/*3, n = 6): (112.43–235.19) ng/mL
- plasma concentration, mean ±SD (genotype SULT1A1 *2/*2, n = 15): 205.87 ± 101.52 ng/mL
- plasma concentration, median (genotype SULT1A1 *2/*2, n = 15): 161.90 ng/mL
- plasma concentration, range (genotype SULT1A1 *2/*2, n = 15): (102.43–396.73) ng/mL
- plasma concentration, mean ±SD (genotype SULT1A1 wt/*2, n = 46): 204.84 ± 107.12 ng/mL
- plasma concentration, range (genotype SULT1A1 wt/*2, n = 46): (77.10–573.83) ng/mL
- plasma concentration, mean ±SD (genotype SULT1A1 wt/wt, n = 60): 200.92 ± 86.14 ng/mL
- plasma concentration, range (genotype SULT1A1 wt/wt, n = 60): (88.08–576.23) ng/mL
- plasma concentration, range (genotype SULT1A2 *2/*2, n = 16): (95.67–396.73) ng/mL
- plasma concentration, mean ±SD (genotype SULT1A2 *2/*3, n = 13): 222.50 ± 93.29 ng/mL
- plasma concentration, median (genotype SULT1A2 *2/*3, n = 13): 240.78 ng/mL
- plasma concentration, range (genotype SULT1A2 *2/*3, n = 13): (112.43–371.37) ng/mL
- plasma concentration, median (genotype SULT1A2 *3/*3, n = 5): 164.35 ng/mL
- plasma concentration, range (genotype SULT1A2 *3/*3, n = 5): (122.20–302.03) ng/mL
- plasma concentration, mean ±SD (genotype SULT1A2 wt/*2, n = 33): 227.33 ± 131.55 ng/mL
- plasma concentration, range (genotype SULT1A2 wt/*2, n = 33): (88.08–576.23) ng/mL
- plasma concentration, range (genotype SULT1A2 wt/*3, n = 16): (89.79–378.32) ng/mL
- plasma concentration, range (genotype SULT1A2 wt/wt, n = 38): (77.10–375.04) ng/mL
- plasma concentration, mean ±SD (genotype SULT1E1 *2/*2, n = 5): 232.36 ± 83.23 ng/mL
- plasma concentration, median (genotype SULT1E1 *2/*2, n = 5): 202.74 ng/mL
- plasma concentration, range (genotype SULT1E1 *2/*2, n = 5): (166.20–375.04) ng/mL
- plasma concentration, mean ±SD (genotype SULT1E1 wt/*2, n = 28): 200.49 ± 77.50 ng/mL
- plasma concentration, range (genotype SULT1E1 wt/*2, n = 28): (77.10–368.73) ng/mL
- plasma concentration, mean ±SD (genotype SULT1E1 wt/wt, n = 88): 202.17 ± 101.97 ng/mL
- plasma concentration, range (genotype SULT1E1 wt/wt, n = 88): (89.79–576.23) ng/mL
Compound: CC/C(=C(\c1ccccc1)c1ccc(OCCN(C)C)cc1)c1ccccc1 [Tamoxifen, reference compound]

- mean plasma concentration (±SD) [1]: 50.88 ± 23.09 ng/mL
- plasma concentration, mean ±SD (genotype CYP2D6 wt/P, n = 26): 54.04 ± 25.63 ng/mL
- plasma concentration, mean ±SD (genotype SULT1A1 *2/*2, n = 15): 56.02 ± 24.50 ng/mL
- plasma concentration, median (genotype SULT1A1 *2/*2, n = 15): 59.27 ng/mL
- plasma concentration, range (genotype SULT1A1 *2/*2, n = 15): (15.69–99.37) ng/mL
- plasma concentration, mean ±SD (genotype SULT1A1 wt/*2, n = 46): 51.02 ± 27.88 ng/mL
- plasma concentration, median (genotype SULT1A1 wt/*2, n = 46): 41.84 ng/mL
- plasma concentration, range (genotype SULT1A1 wt/*2, n = 46): (17.43–142.97) ng/mL
- plasma concentration, mean ±SD (genotype SULT1A1 wt/wt, n = 60): 48.69 ± 18.93 ng/mL
- plasma concentration, range (genotype SULT1A1 wt/wt, n = 60): (15.69–106.35) ng/mL
- plasma concentration, mean ±SD (genotype SULT1A2 *2/*2, n = 16): 47.18 ± 20.97 ng/mL
- plasma concentration, median (genotype SULT1A2 *2/*2, n = 16): 50.56 ng/mL
- plasma concentration, range (genotype SULT1A2 *2/*2, n = 16): (15.69–81.94) ng/mL
- plasma concentration, mean ±SD (genotype SULT1A2 *2/*3, n = 13): 46.94 ± 17.33 ng/mL
- plasma concentration, range (genotype SULT1A2 *2/*3, n = 13): (17.43–90.66) ng/mL
- plasma concentration, mean ±SD (genotype SULT1A2 *3/*3, n = 5): 38.35 ± 10.17 ng/mL
- plasma concentration, range (genotype SULT1A2 *3/*3, n = 5): (26.15–50.56) ng/mL
- plasma concentration, mean ±SD (genotype SULT1A2 wt/*2, n = 33): 60.87 ± 31.96 ng/mL
- plasma concentration, median (genotype SULT1A2 wt/*2, n = 33): 54.04 ng/mL
- plasma concentration, range (genotype SULT1A2 wt/*2, n = 33): (20.53–142.97) ng/mL
- plasma concentration, mean ±SD (genotype SULT1A2 wt/*3, n = 16): 47.29 ± 17.70 ng/mL
- plasma concentration, median (genotype SULT1A2 wt/*3, n = 16): 46.20 ng/mL
- plasma concentration, range (genotype SULT1A2 wt/*3, n = 16): (19.18–83.68) ng/mL
- plasma concentration, mean ±SD (genotype SULT1A2 wt/wt, n = 38): 47.65 ± 19.19 ng/mL
- plasma concentration, median (genotype SULT1A2 wt/wt, n = 38): 42.71 ng/mL
- plasma concentration, range (genotype SULT1A2 wt/wt, n = 38): (15.69–99.37) ng/mL
- plasma concentration, mean ±SD (genotype SULT1E1 *2/*2, n = 5): 49.86 ± 8.94 ng/mL
- plasma concentration, mean ±SD (genotype SULT1E1 wt/*2, n = 28): 47.65 ± 19.38 ng/mL
- plasma concentration, median (genotype SULT1E1 wt/*2, n = 28): 47.94 ng/mL
- plasma concentration, range (genotype SULT1E1 wt/*2, n = 28): (20.53–90.66) ng/mL
- plasma concentration, mean ±SD (genotype SULT1E1 wt/wt, n = 88): 51.48 ± 25.13 ng/mL
- plasma concentration, range (genotype SULT1E1 wt/wt, n = 88): (15.69–142.97) ng/mL
Compound: CC/C(=C(\c1ccccc1)c1ccc(OCC[N+](C)(C)[O-])cc1)c1ccccc1 [Tamoxifen-N-oxide, tamoxifen-N-oxide]
